The target of assay [1] is VEGFR-1 (Homo sapiens, UniProt P17948). Conditions: cited from earlier work.
Assay [2] addresses VEGFR-2 (Homo sapiens, UniProt P35968). The note with it: cited from earlier work.
Assay [3] deals with VEGFR-3 (Homo sapiens, UniProt P35916). Conditions: cited from earlier work.
The subject of assay [4] is ovarian carcinoma cell line (A2780). Description: Concomitant therapy with TTFields and lenvatinib, cell count and apoptosis. The note with it: A2780 cells, 4 μM Lenvatinib combined with TTFields vs either therapy alone. Type of assay: cell-based. As to the method: FIG. 5 contains photomicrographs of A2780 cells following TTFields treatment alone, treatment with 4 μM Lenvatinib, and concomitant therapy with both TTFields and 4 μM Lenvatinib.
In particular, the combinatorial effect of TTFields and lenvatinib was examined in an ovarian carcinoma cell line (A2780).

Counter-ions that a name gives are not always drawn.

Sequence of VEGFR-3 (P35916 25-1363, species assumed): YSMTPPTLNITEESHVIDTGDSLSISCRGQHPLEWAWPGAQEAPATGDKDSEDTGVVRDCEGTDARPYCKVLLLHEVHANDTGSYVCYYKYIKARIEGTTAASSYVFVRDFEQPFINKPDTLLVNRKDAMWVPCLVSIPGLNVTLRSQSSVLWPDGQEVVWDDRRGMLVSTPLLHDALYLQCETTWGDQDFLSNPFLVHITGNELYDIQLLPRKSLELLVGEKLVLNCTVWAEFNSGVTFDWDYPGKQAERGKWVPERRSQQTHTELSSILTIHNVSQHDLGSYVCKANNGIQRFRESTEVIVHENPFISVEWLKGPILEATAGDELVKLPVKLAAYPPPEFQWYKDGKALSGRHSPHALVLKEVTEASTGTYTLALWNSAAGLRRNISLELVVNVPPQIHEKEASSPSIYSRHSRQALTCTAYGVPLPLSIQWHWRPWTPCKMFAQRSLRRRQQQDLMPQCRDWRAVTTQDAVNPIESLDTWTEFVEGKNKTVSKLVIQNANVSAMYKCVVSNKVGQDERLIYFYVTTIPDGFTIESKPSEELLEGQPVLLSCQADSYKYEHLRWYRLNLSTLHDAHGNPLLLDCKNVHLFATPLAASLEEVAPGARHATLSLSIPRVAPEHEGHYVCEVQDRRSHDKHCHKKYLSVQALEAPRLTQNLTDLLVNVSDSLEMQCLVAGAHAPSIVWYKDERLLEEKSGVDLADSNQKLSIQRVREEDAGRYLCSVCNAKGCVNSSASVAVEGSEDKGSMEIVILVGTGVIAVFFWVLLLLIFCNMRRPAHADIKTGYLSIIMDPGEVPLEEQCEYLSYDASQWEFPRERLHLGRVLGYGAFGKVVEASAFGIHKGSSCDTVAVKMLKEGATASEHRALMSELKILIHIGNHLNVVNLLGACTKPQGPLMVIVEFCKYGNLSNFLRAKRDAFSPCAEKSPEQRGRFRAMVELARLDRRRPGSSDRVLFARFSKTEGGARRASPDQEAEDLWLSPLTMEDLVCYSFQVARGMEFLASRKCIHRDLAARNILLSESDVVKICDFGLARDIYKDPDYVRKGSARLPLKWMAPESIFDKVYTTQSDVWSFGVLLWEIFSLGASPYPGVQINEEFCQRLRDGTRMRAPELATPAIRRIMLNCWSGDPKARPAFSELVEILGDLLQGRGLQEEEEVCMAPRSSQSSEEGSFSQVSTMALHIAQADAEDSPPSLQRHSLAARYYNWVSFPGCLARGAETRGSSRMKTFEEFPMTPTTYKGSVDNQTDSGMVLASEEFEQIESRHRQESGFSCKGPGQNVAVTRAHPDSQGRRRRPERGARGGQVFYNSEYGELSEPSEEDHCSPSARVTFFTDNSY
Sequence of VEGFR-1 (P17948 27-1338, species assumed): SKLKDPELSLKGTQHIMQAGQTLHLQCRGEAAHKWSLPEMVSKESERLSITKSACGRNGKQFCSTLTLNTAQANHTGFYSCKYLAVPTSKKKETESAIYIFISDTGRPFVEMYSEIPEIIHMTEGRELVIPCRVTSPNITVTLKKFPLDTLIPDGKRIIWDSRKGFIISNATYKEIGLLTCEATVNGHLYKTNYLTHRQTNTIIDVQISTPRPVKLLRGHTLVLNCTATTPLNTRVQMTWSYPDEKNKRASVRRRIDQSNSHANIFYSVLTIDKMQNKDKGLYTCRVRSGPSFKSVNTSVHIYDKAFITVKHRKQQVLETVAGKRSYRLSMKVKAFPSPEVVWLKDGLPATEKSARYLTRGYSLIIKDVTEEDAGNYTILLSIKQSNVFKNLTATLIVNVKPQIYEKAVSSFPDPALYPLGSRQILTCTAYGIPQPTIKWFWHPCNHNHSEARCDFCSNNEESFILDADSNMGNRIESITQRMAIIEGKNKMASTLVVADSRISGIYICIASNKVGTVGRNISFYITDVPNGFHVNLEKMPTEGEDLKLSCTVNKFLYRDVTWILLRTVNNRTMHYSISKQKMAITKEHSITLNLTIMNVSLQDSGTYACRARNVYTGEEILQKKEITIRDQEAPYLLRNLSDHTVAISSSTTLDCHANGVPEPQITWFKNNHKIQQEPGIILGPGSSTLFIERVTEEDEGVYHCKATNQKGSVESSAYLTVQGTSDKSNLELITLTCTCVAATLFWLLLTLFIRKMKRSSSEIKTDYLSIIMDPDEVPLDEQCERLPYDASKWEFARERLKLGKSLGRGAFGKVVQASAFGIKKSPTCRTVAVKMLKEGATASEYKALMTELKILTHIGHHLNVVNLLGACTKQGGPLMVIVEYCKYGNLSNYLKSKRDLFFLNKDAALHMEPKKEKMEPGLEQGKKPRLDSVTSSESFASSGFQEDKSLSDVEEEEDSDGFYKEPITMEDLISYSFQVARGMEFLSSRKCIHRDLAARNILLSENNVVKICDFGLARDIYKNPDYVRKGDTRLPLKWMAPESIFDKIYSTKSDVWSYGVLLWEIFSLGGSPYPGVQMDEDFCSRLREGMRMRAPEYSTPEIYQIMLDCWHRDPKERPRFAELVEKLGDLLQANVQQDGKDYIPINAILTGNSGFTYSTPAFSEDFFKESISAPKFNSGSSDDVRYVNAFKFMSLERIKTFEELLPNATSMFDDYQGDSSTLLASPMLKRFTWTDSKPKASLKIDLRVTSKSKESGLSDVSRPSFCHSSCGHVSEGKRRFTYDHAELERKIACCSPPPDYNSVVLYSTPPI
Sequence of VEGFR-2 (P35968 20-1356, species assumed): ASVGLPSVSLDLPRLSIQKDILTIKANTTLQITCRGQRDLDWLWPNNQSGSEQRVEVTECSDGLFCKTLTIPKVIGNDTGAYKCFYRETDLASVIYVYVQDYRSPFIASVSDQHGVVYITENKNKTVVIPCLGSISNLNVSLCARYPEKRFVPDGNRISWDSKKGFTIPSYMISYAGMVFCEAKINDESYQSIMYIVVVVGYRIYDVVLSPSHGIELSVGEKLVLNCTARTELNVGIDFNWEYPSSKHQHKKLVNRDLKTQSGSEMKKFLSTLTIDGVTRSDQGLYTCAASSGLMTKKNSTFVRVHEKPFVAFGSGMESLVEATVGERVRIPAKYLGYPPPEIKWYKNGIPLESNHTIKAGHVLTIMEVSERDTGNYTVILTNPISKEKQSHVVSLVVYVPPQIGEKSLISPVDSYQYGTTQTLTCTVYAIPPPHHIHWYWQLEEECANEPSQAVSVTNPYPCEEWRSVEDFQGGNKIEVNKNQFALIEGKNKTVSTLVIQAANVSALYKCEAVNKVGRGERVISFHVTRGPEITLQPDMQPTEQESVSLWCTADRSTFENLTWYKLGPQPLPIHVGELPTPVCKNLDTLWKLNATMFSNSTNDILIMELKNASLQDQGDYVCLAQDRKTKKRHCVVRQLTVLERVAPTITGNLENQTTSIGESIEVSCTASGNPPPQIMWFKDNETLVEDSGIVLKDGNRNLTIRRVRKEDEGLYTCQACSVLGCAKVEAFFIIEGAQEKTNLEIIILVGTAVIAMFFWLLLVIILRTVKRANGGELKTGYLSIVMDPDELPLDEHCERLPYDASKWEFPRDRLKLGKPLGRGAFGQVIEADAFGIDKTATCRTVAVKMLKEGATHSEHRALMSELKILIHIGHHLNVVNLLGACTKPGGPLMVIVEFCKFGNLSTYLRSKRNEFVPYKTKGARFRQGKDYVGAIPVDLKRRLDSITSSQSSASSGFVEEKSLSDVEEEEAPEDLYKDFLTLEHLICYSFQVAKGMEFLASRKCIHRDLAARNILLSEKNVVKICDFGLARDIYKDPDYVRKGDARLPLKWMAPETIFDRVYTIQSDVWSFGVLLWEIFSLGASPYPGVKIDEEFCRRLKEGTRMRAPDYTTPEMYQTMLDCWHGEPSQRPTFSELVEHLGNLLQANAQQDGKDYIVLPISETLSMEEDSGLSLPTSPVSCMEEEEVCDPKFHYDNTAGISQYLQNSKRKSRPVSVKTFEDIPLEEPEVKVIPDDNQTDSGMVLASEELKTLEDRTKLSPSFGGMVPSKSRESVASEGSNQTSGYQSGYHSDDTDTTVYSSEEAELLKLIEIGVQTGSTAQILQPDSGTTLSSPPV

For the compound `COc1cc2c(Oc3ccc4[nH]c(C)cc4c3F)ccnc2cc1OCC1(N)CC1` [Anlotinib], the “IC50 for VEGFR-1” value in assay [1] is on record as “Does not bind”. In assay [2], the IC50 is < 1 nM. In addition, in assay [3], the “IC50 for VEGFR-3” value is listed as “Does not bind”. For `COc1cc2nccc(Oc3ccc(NC(=O)C4(C(=O)Nc5ccc(F)cc5)CC4)cc3)c2cc1OC` [Cabozantinib], the “IC50 for VEGFR-3” value in assay [3] is reported as “Does not bind”. Consider `COc1cc2nccc(Oc3ccc(NC(=O)Nc4ccc(F)cc4F)c(F)c3)c2cc1OC` [Ki8751], for which the IC50 in assay [2] was 0.9 nM. Take `COc1cc2nccc(Oc3ccc(NC(=O)NC4CC4)c(Cl)c3)c2cc1C(N)=O` [Lenvatinib]: in assay [4], the “effect of concomitant therapy on apoptosis” value is on record as “enhanced effect over either therapy alone” and the “effect of concomitant therapy on cell count” value is “enhanced effect over either therapy alone”. With `Cc1c(C(=O)Nc2ccc(Oc3ccnc4cc(OCC(C)(C)O)ccc34)c(F)c2)c(=O)n(-c2ccccc2)n1C` [Ningetinib], the IC50 in assay [2] is 1.9 nM. Turning to `Cn1cc(-c2ccc3c(c2)ncn3-c2cc(NS(=O)(=O)C3CC3)cc(-c3ccc(F)cc3F)c2)cn1` [ODM-203], the IC50 in assay [1] is 26 nM; in assay [2], 9 nM; in assay [3] it was 5 nM. On to `COc1cc2c(cc1F)C(c1ccccc1Cl)=Nc1c(n[nH]c1C)N2` [R1530], for which the concentration for half-maximal inhibition (IC50) in assay [2] is 10 nM. In the case of `Cc1[nH]c(/C=C2\C(=O)Nc3ccc(F)cc32)c(C)c1C(=O)NC[C@H](O)CN1CCOCC1` [SU14813], the IC50 in assay [1] is 2 nM; in assay [2], 50 nM.

Consider `CNC(=O)c1cc2c(Oc3ccc(NC(=O)C4(C(=O)Nc5ccc(F)cc5)CC4)cc3)ccnc2cc1OC` [XL092], for which the IC50 in assay [2] was 1.6 nM. Regarding `Cc1cc(F)c(Nc2ncnc3cc(OCc4ccccc4)ccc23)cc1O` [ZM 323881 HCl], the IC50 in assay [2] is < 2 nM.

As usually defined, the IC50 is the midpoint of a concentration-inhibition curve.
